Laboratory results as given in ChEMBL document CHEMBL1141801, “N-(jasmonoyl)tyrosine-derived compounds from flowers of broad beans (Vicia faba)” (J Nat Prod, 2005).
The source made the active and inactive calls. No cut-off for these calls is given here.

Legend:
[1] = target: T1, Tyrosinase (Agaricus bisporus) (UniProt O42713); experiment: Activity of mushroom tyrosinase assessed as specific activity pkat per mg of protein
T1 sequence (whole entry): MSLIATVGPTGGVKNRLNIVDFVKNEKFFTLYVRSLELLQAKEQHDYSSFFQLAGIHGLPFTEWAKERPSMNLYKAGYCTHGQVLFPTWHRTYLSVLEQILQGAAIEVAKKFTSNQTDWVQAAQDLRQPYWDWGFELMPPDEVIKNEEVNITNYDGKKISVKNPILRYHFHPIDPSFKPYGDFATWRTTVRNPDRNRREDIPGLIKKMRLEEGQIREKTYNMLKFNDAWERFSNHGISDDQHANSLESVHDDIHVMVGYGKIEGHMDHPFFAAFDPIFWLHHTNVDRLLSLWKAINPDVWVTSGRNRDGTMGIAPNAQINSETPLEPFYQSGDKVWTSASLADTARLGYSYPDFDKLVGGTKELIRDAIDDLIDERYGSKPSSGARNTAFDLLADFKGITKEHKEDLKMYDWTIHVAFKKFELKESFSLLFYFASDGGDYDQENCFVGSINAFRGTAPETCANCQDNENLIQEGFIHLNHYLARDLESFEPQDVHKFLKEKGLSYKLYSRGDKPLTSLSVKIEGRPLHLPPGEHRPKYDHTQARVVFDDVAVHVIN

[2] = test system: Eschscholzia californica; experiment: Elicitor activity in Eschscholzia californica Cham. assessed as elicitation of chelirubine formation at 30 uM; assay type: functional, organism-based
[3] = test system: Eschscholzia californica; experiment: Elicitor activity in Eschscholzia californica Cham. assessed as elicitation of chelirubine formation at 300 uM; assay type: functional, organism-based
[4] = test system: Eschscholzia californica; experiment: Elicitor activity in Eschscholzia californica Cham. assessed as elicitation of chelirubine formation; assay type: functional, organism-based

Structure (SMILES)	Activity [1]	Activity [2]	Activity [3]	Activity [4]
N[C@@H](Cc1ccc(O)cc1)C(=O)O	15600			
CC/C=C\CC1C(=O)CCC1CC(=O)N[C@@H](Cc1ccc(O)cc1)C(=O)O (mixture of isomers)	2320			
CC/C=C\CC1C(=O)CCC1CC(=O)NCCc1ccc(O)c(O)c1 (racemic)		Active	Active	
CC/C=C\CC1C(=O)CCC1CC(=O)NCCc1ccc(O)cc1 (racemic)	5630	Active	Active	
CC/C=C\CC1C(=O)CCC1CC(=O)O (racemic)				Active
